Reference: ChEMBL document CHEMBL1201862, “PubChem BioAssay data set” (2004)
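Step 1: Grow cells in 96-well plates. Step 2: Expose to compound for 48 hours at 5 concentrations. Step 3: Interpolate endpoints linearly; if unreached, use highest concentration. Abbreviation: GI50, concentration required for 50% inhibition of growth.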 Calls of active or inactive are those of the source. Cut-off read from the data, not from the text of the source: active = GI50 up to about 1.1 µM and inactive = higher.

Legend:
Test in all cases: NCI-60 cell line screen, 48 h
HOP-62 = system: HOP-62
Hs-578T = system: Hs-578T
NCI-H522 = system: NCI-H522
SK-MEL-2 = system: SK-MEL-2
SN12C = system: SN12C
OVCAR-5 = system: OVCAR-5
M14 = system: M14
A498 = system: A498
COLO 205 = system: COLO 205
UO-31 = system: UO-31
OVCAR-3 = system: OVCAR-3
Malme-3M = system: Malme-3M
MDA-MB-435 = system: MDA-MB-435
OVCAR-4 = system: OVCAR-4
SK-OV-3 = system: SK-OV-3
PC-3 = system: PC-3
TK-10 = system: TK-10
MOLT-4 = system: MOLT-4
CCRF-CEM = system: CCRF-CEM
SW-620 = system: SW-620
SK-MEL-5 = system: SK-MEL-5
SNB-75 = system: SNB-75
OVCAR-8 = system: OVCAR-8
MDA-MB-231 = system: MDA-MB-231
SK-MEL-28 = system: SK-MEL-28
T47D = system: T47D
HCC 2998 = system: HCC 2998
HOP-92 = system: HOP-92
A549 = system: A549
HCT-116 = system: HCT-116
HT-29 = system: HT-29
786-0 = system: 786-0
EKVX = system: EKVX
SF-268 = system: SF-268
LOX IMVI = system: LOX IMVI
NCI-H460 = system: NCI-H460
HCT-15 = system: HCT-15
NCI/ADR-RES = system: NCI/ADR-RES
RXF 393 = system: RXF 393
SNB-19 = system: SNB-19
ACHN = system: ACHN
KM12 = system: KM12
CAKI-1 = system: CAKI-1
SF-539 = system: SF-539
NCI-H23 = system: NCI-H23
UACC-257 = system: UACC-257
HL-60 = system: HL-60
K562 = system: K562
UACC-62 = system: UACC-62
DU-145 = system: DU-145
NCI-H226 = system: NCI-H226
SF-295 = system: SF-295
MCF7 = system: MCF7
BT-549 = system: BT-549
IGROV-1 = system: IGROV-1
MDA-N = system: MDA-N
U-251 = system: U-251
SR = system: SR
RPMI-8226 = system: RPMI-8226

Cc1cc(C)c2c(=O)n(CN3CCN(c4ccccc4)CC3)sc2n1
GI50 (HOP-62): 34.1 µM (inactive)
GI50 (Hs-578T): 70.1 µM (inactive)
GI50 (NCI-H522): 14.4 µM (inactive)
GI50 (SK-MEL-2): 17.2 µM (inactive)
GI50 (SN12C): 27 µM (inactive)
GI50 (OVCAR-5): 27.7 µM (inactive)
GI50 (M14): 24.5 µM (inactive)
GI50 (A498): > 100 µM (inactive)
GI50 (COLO 205): 19.5 µM (inactive)
GI50 (UO-31): 21.6 µM (inactive)
GI50 (OVCAR-3): 36.6 µM (inactive)
GI50 (Malme-3M): 37.2 µM (inactive)
GI50 (MDA-MB-435): 37.8 µM (inactive)
GI50 (OVCAR-4): 54 µM (inactive)
GI50 (SK-OV-3): > 100 µM (inactive)
GI50 (PC-3): 19.4 µM (inactive)
GI50 (TK-10): 49.5 µM (inactive)
GI50 (MOLT-4): 20.1 µM (inactive)
GI50 (CCRF-CEM): 9.59 µM (inactive)
GI50 (SW-620): 29.2 µM (inactive)
GI50 (SK-MEL-5): 28.3 µM (inactive)
GI50 (SNB-75): 15.8 µM (inactive)
GI50 (OVCAR-8): 35.4 µM (inactive)
GI50 (MDA-MB-231): 20.4 µM (inactive)
GI50 (SK-MEL-28): 36.6 µM (inactive)
GI50 (T47D): 15 µM (inactive)
GI50 (HCC 2998): 71.3 µM (inactive)
GI50 (HOP-92): > 100 µM (inactive)
GI50 (A549): 33.8 µM (inactive)
GI50 (HCT-116): 17.7 µM (inactive)
GI50 (HT-29): 18.7 µM (inactive)
GI50 (786-0): 16.8 µM (inactive)
GI50 (EKVX): 29.8 µM (inactive)
GI50 (SF-268): > 100 µM (inactive)
GI50 (LOX IMVI): 20.7 µM (inactive)
GI50 (NCI-H460): 67.9 µM (inactive)
GI50 (HCT-15): 22.5 µM
GI50 (NCI/ADR-RES): 24.2 µM (inactive)
GI50 (RXF 393): 12.6 µM (inactive)
GI50 (SNB-19): > 100 µM (inactive)
GI50 (ACHN): 20.1 µM (inactive)
GI50 (KM12): > 100 µM (inactive)
GI50 (CAKI-1): 21 µM (inactive)
GI50 (SF-539): 18.6 µM (inactive)
GI50 (NCI-H23): 29.2 µM (inactive)
GI50 (UACC-257): 46.6 µM (inactive)
GI50 (HL-60): 9.71 µM (inactive)
GI50 (K562): 30 µM (inactive)
GI50 (UACC-62): 53.2 µM (inactive)
GI50 (DU-145): 22.2 µM (inactive)
GI50 (NCI-H226): > 100 µM (inactive)
GI50 (SF-295): > 100 µM (inactive)
GI50 (MCF7): 29.7 µM (inactive)
GI50 (BT-549): 63.2 µM (inactive)
GI50 (IGROV-1): > 100 µM (inactive)
GI50 (MDA-N): 23.7 µM (inactive)
GI50 (U-251): 23.4 µM (inactive)

Cc1c(S(=O)(=O)/N=C(\NN)Nc2ccc(Cl)cc2)sc2ccc(Cl)cc12
GI50 (HOP-62): 18.7 µM (inactive)
GI50 (Hs-578T): 36.6 µM (inactive)
GI50 (NCI-H522): 17.3 µM (inactive)
GI50 (SK-MEL-2): 16.3 µM (inactive)
GI50 (SN12C): 16.7 µM (inactive)
GI50 (OVCAR-5): 14.4 µM (inactive)
GI50 (M14): 20.5 µM (inactive)
GI50 (A498): 15.8 µM (inactive)
GI50 (COLO 205): 16.3 µM (inactive)
GI50 (UO-31): 19 µM (inactive)
GI50 (OVCAR-3): 16.6 µM (inactive)
GI50 (Malme-3M): 22.3 µM (inactive)
GI50 (OVCAR-4): 15.5 µM (inactive)
GI50 (SK-OV-3): 19.7 µM (inactive)
GI50 (PC-3): 15.5 µM (inactive)
GI50 (TK-10): 17 µM (inactive)
GI50 (MOLT-4): 13.1 µM (inactive)
GI50 (CCRF-CEM): 16.3 µM (inactive)
GI50 (SW-620): 24 µM (inactive)
GI50 (SK-MEL-5): 17.1 µM (inactive)
GI50 (SNB-75): 14.8 µM (inactive)
GI50 (OVCAR-8): 16.8 µM (inactive)
GI50 (SR): 22.2 µM (inactive)
GI50 (MDA-MB-231): 16.5 µM (inactive)
GI50 (SK-MEL-28): 20.6 µM (inactive)
GI50 (T47D): 10.2 µM (inactive)
GI50 (HOP-92): 15.1 µM (inactive)
GI50 (A549): 16.9 µM (inactive)
GI50 (HCT-116): 13.3 µM (inactive)
GI50 (HT-29): 16.6 µM (inactive)
GI50 (786-0): 17.5 µM (inactive)
GI50 (RPMI-8226): 27.9 µM (inactive)
GI50 (EKVX): 13.9 µM (inactive)
GI50 (SF-268): 18.8 µM (inactive)
GI50 (LOX IMVI): 18.6 µM (inactive)
GI50 (NCI-H460): 16.6 µM (inactive)
GI50 (HCT-15): 16.6 µM
GI50 (NCI/ADR-RES): 18 µM (inactive)
GI50 (RXF 393): 11.1 µM (inactive)
GI50 (SNB-19): 23.3 µM (inactive)
GI50 (ACHN): 16.3 µM (inactive)
GI50 (KM12): 15.3 µM (inactive)
GI50 (CAKI-1): 19 µM (inactive)
GI50 (SF-539): 14.3 µM (inactive)
GI50 (NCI-H23): 17.7 µM (inactive)
GI50 (UACC-257): 18.2 µM (inactive)
GI50 (HL-60): 32.4 µM (inactive)
GI50 (K562): 24 µM (inactive)
GI50 (UACC-62): 14.2 µM (inactive)
GI50 (DU-145): 16.9 µM (inactive)
GI50 (NCI-H226): 20 µM (inactive)
GI50 (SF-295): 17.9 µM (inactive)
GI50 (MCF7): 14.9 µM (inactive)
GI50 (BT-549): 16.7 µM (inactive)
GI50 (IGROV-1): 15.2 µM (inactive)
GI50 (MDA-N): 15.6 µM (inactive)
GI50 (U-251): 16.3 µM (inactive)
